The conditions of series [1]: 100 kPa, Liquid, Vibrating tube method.
The nature of series [2]: molar heat capacity at constant pressure. The note with it: 100 kPa, Liquid, Extra sensitive DSC.
Series [3] is described as follows: xn = mol fraction of the nth substance listed. The note with it: 100 kPa, Liquid, Vibrating tube method, x2 = 0.
Series [4] in a line: molar heat capacity at constant pressure; xn = mol fraction of the nth substance listed. The note with it: 100 kPa, Liquid, Extra sensitive DSC, x2 = 0.

± gives the expanded uncertainty stated by the source.

Take `CCCO` [propan-1-ol]: the mass density turned out to be 799.46 ± 0.71 kg/m3 in series [1] (298.15 K), 791.36 ± 0.71 kg/m3 in series [1] (308.15 K), 783.1 ± 0.71 kg/m3 in series [1] (318.15 K) and 774.63 ± 0.71 kg/m3 in series [1] (328.15 K). Further, the “molar heat capacity at constant pressure” value is reported as 144.5 ± 5.6 J/K/mol in series [2] (298.8 K), 150.9 ± 5.8 J/K/mol in series [2] (308.7 K), 157.4 ± 6.1 J/K/mol in series [2] (318.6 K) and 164.5 ± 6.4 J/K/mol in series [2] (328.5 K).

On to `CCCO` [propan-1-ol] + Cc1ccc(C(C)C)cc1, for which the mass density in series [3] (298.15 K) is recorded as 799.46 ± 0.71 kg/m3; in series [3] (308.15 K) it was 791.36 ± 0.71 kg/m3; in series [3] (318.15 K) it was 783.1 ± 0.71 kg/m3; in series [3] (328.15 K) it was 774.63 ± 0.71 kg/m3. In addition, the “molar heat capacity at constant pressure” value is reported as 144.5 ± 5.6 J/K/mol in series [4] (298.8 K), 150.9 ± 5.8 J/K/mol in series [4] (308.7 K), 157.4 ± 6.1 J/K/mol in series [4] (318.6 K) and 164.5 ± 6.4 J/K/mol in series [4] (328.5 K).

For the molecule `Cc1ccc(C(C)C)cc1` [1-(1-methylethyl)-4-methylbenzene], the mass density is 852.99 ± 0.71 kg/m3 in series [1] (298.15 K), 844.94 ± 0.71 kg/m3 in series [1] (308.15 K), 836.86 ± 0.71 kg/m3 in series [1] (318.15 K) and 828.75 ± 0.71 kg/m3 in series [1] (328.15 K). For the same molecule, the “molar heat capacity at constant pressure” value in series [2] (298.8 K) is 240.9 ± 9.3 J/K/mol; in series [2] (308.7 K), 244.8 ± 9.5 J/K/mol; in series [2] (318.6 K) it was 249.4 ± 9.7 J/K/mol; in series [2] (328.5 K), 254.6 ± 9.9 J/K/mol.

The mass density is the mass of a sample divided by its volume.

Source of the values: the NIST ThermoML archive (doi:10.1016/j.jct.2018.03.021).
